Source: US11759462B2, “Spirocyclic compounds as tryptophan hydroxylase inhibitors” (priority 2013, dated 2023)
Like-named read-outs stand apart in the source and are kept apart here.

Biological target: T1, Recombinant human TPH1 (MBP tagged) (Homo sapiens, UniProt P17752)
T1 construct: cloning full length human TPH1 cDNA in to a bacterial pMAL-c5E expression vector; made in house; host or cells: E. coli BL21 (DE3)
T1 sequence (P17752 1-444): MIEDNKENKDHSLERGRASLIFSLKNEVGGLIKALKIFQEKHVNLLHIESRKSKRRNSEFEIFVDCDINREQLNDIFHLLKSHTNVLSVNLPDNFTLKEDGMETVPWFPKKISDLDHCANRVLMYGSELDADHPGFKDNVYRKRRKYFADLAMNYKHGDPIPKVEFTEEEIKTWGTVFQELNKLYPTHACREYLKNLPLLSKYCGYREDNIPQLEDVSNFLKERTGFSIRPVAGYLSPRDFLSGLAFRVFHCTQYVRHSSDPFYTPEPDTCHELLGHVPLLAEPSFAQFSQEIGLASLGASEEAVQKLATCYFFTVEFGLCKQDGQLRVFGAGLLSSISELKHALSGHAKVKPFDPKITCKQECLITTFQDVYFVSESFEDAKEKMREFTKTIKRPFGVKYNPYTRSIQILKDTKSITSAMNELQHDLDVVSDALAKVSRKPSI
Test: TPH1 in vitro inhibition assay (kinetic fluorescence)
Format: biochemical
How it was run: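 Final mix: 15 nM MBP-TPH1, 30 μM Trp, 36 μM 6-methyltetrahydropterin, 25 μM ferrous ammonium sulfate, 50 mM MES pH 7.1, 1% DMSO, room temperature.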

[1] = read-out: TPH1 Range (TPH1 inhibition IC50)

Compound | IC50 [1] | IC50 (TPH1 Range (TPH1 inhibition IC50))
CC(C)c1cccc(-c2ccc([C@@H](Oc3cc(N4CCC5(CC4)CN[C@H](C(=O)O)C5)nc(N)n3)C(F)(F)F)cc2)c1 [Example 55ck, (S)-8-(2-amino-6-((R)-2,2,2-trifluoro-1-(3′-isopropyl-[1,1′-biphenyl]-4-yl)ethoxy)pyrimidin-4-yl)-2,8-diazaspiro[4.5]decane-3-carboxylic acid] | 300 to 3000 nM | 
Nc1nc(O[C@H](c2ccc(-c3ccc(Cl)c(Cl)c3)cc2)C(F)(F)F)cc(N2CCC3(CC2)CN[C@H](C(=O)O)C3)n1 [Example 55cl, (S)-8-(2-amino-6-((R)-1-(3′,4′-dichloro-[1,1′-biphenyl]-4-yl)-2,2,2-trifluoroethoxy)pyrimidin-4-yl)-2,8-diazaspiro[4.5]decane-3-carboxylic acid] | 50 to 300 nM | 
Nc1nc(O[C@H](c2ccc(-c3ccc(OC(F)(F)F)cc3)cc2)C(F)(F)F)cc(N2CCC3(CC2)CN[C@H](C(=O)O)C3)n1 [Example 55cm, (S)-8-(2-amino-6-((R)-2,2,2-trifluoro-1-(4′-(trifluoromethoxy)-[1,1′-biphenyl]-4-yl)ethoxy)pyrimidin-4-yl)-2,8-diazaspiro[4.5]decane-3-carboxylic acid] | 300 to 3000 nM | 
Cc1cccc(-c2ccc([C@@H](Oc3cc(N4CCC5(CC4)CN[C@H](C(=O)O)C5)nc(N)n3)C(F)(F)F)cc2)c1C [Example 55cn, (S)-8-(2-amino-6-((R)-1-(2′,3′-dimethyl-[1,1′-biphenyl]-4-yl)-2,2,2-trifluoroethoxy)pyrimidin-4-yl)-2,8-diazaspiro[4.5]decane-3-carboxylic acid] | 300 to 3000 nM | 
Cc1cc(Cl)ccc1-c1ccc([C@@H](Oc2cc(N3CCC4(CC3)CN[C@H](C(=O)O)C4)nc(N)n2)C(F)(F)F)cc1 [Example 55cp, (S)-8-(2-amino-6-((R)-1-(4′-chloro-2′-methyl-[1,1′-biphenyl]-4-yl)-2,2,2-trifluoroethoxy)pyrimidin-4-yl)-2,8-diazaspiro[4.5]decane-3-carboxylic acid] | 300 to 3000 nM | 
Cc1cc(C)cc(-c2ccc([C@@H](Oc3cc(N4CCC5(CC4)CN[C@H](C(=O)O)C5)nc(N)n3)C(F)(F)F)cc2)c1 [Example 55cq, (S)-8-(2-amino-6-((R)-1-(3′,5′-dimethyl-[1,1′-biphenyl]-4-yl)-2,2,2-trifluoroethoxy)pyrimidin-4-yl)-2,8-diazaspiro[4.5]decane-3-carboxylic acid] | 50 to 300 nM | 
Nc1nc(O[C@H](c2ccc(-c3ccc(F)c(F)c3)cc2)C(F)(F)F)cc(N2CCC3(CC2)CN[C@H](C(=O)O)C3)n1 [Example 55cr, (S)-8-(2-amino-6-((R)-1-(3′,4′-difluoro-[1,1′-biphenyl]-4-yl)-2,2,2-trifluoroethoxy)pyrimidin-4-yl)-2,8-diazaspiro[4.5]decane-3-carboxylic acid] | 300 to 3000 nM | 
Cc1ccc(C)c(-c2ccc([C@@H](Oc3cc(N4CCC5(CC4)CN[C@H](C(=O)O)C5)nc(N)n3)C(F)(F)F)cc2)c1 [Example 55cs, (S)-8-(2-amino-6-((R)-1-(2′,5′-dimethyl-[1,1′-biphenyl]-4-yl)-2,2,2-trifluoroethoxy)pyrimidin-4-yl)-2,8-diazaspiro[4.5]decane-3-carboxylic acid] | 300 to 3000 nM | 
CCCCc1ccc(-c2ccc([C@@H](Oc3cc(N4CCC5(CC4)CN[C@H](C(=O)O)C5)nc(N)n3)C(F)(F)F)cc2)cc1 [Example 55ct, (S)-8-(2-amino-6-((R)-1-(4′-butyl-[1,1′-biphenyl]-4-yl)-2,2,2-trifluoroethoxy)pyrimidin-4-yl)-2,8-diazaspiro[4.5]decane-3-carboxylic acid] | 300 to 3000 nM | 
Cc1ccc(-c2ccc([C@@H](Oc3cc(N4CCC5(CC4)CN[C@H](C(=O)O)C5)nc(N)n3)C(F)(F)F)cc2)cc1F [Example 55cu, (S)-8-(2-amino-6-((R)-2,2,2-trifluoro-1-(3′-fluoro-4′-methyl-[1,1′-biphenyl]-4-yl)ethoxy)pyrimidin-4-yl)-2,8-diazaspiro[4.5]decane-3-carboxylic acid] | 300 to 3000 nM | 
Cc1cccc(-c2ccc([C@@H](Oc3cc(N4CCC5(CC4)CN[C@H](C(=O)O)C5)nc(N)n3)C(F)(F)F)cc2)c1 [Example 55cx, (S)-8-(2-amino-6-((R)-2,2,2-trifluoro-1-(3′-methyl-[1,1′-biphenyl]-4-yl)ethoxy)pyrimidin-4-yl)-2,8-diazaspiro[4.5]decane-3-carboxylic acid] | 300 to 3000 nM | 
Nc1nc(O[C@H](c2ccc(-c3coc4ccccc34)cc2)C(F)(F)F)cc(N2CCC3(CC2)CN[C@H](C(=O)O)C3)n1 [Example 55cz, (S)-8-(2-amino-6-((R)-1-(4-(benzofuran-3-yl)phenyl)-2,2,2-trifluoroethoxy)pyrimidin-4-yl)-2,8-diazaspiro[4.5]decane-3-carboxylic acid] | 50 to 300 nM | 
Nc1nc(O[C@H](c2ccc(-c3ccc4[nH]cnc4c3)cc2)C(F)(F)F)cc(N2CCC3(CC2)CN[C@H](C(=O)O)C3)n1 [Example 55d, (S)-8-(6-((R)-1-(4-(1H-benzo[d]imidazol-5-yl)phenyl)-2,2,2-trifluoroethoxy)-2-aminopyrimidin-4-yl)-2,8-diazaspiro[4.5]decane-3-carboxylic acid] | < 50 nM | 
COc1ccc(F)cc1-c1ccc([C@@H](Oc2cc(N3CCC4(CC3)CN[C@H](C(=O)O)C4)nc(N)n2)C(F)(F)F)cc1 [Example 55da, (S)-8-(2-amino-6-((R)-2,2,2-trifluoro-1-(5′-fluoro-2′-methoxy-[1,1′-biphenyl]-4-yl)ethoxy)pyrimidin-4-yl)-2,8-diazaspiro[4.5]decane-3-carboxylic acid] | 300 to 3000 nM | 
Nc1nc(O[C@H](c2ccc(-c3ccc4c(c3)OC(=O)CC4)cc2)C(F)(F)F)cc(N2CCC3(CC2)CN[C@H](C(=O)O)C3)n1 [Example 55db, (S)-8-(2-amino-6-((R)-2,2,2-trifluoro-1-(4-(2-oxochroman-7-yl)phenyl)ethoxy)pyrimidin-4-yl)-2,8-diazaspiro[4.5]decane-3-carboxylic acid] | 300 to 3000 nM | 
Nc1nc(O[C@H](c2ccc(-c3ccc4ncc(F)cc4c3)cc2)C(F)(F)F)cc(N2CCC3(CC2)CN[C@H](C(=O)O)C3)n1 [Example 55dc, (S)-8-(2-amino-6-((R)-2,2,2-trifluoro-1-(4-(3-fluoroquinolin-6-yl)phenyl)ethoxy)pyrimidin-4-yl)-2,8-diazaspiro[4.5]decane-3-carboxylic acid] |  | < 50 nM

Next, values leading:

IC50 [1] | IC50 (TPH1 Range (TPH1 inhibition IC50)) | Compound
300 to 3000 nM |  | CS(=O)(=O)c1ccc(-c2ccc([C@@H](Oc3cc(N4CCC5(CC4)CN[C@H](C(=O)O)C5)nc(N)n3)C(F)(F)F)cc2)cc1 [Example 55cv, (S)-8-(2-amino-6-((R)-2,2,2-trifluoro-1-(4′-(methylsulfonyl)-[1,1′-biphenyl]-4-yl)ethoxy)pyrimidin-4-yl)-2,8-diazaspiro[4.5]decane-3-carboxylic acid]
300 to 3000 nM |  | Cc1ccc(-c2ccc([C@@H](Oc3cc(N4CCC5(CC4)CN[C@H](C(=O)O)C5)nc(N)n3)C(F)(F)F)cc2)cc1 [Example 55cw, (S)-8-(2-amino-6-((R)-2,2,2-trifluoro-1-(4′-methyl-[1,1′-biphenyl]-4-yl)ethoxy)pyrimidin-4-yl)-2,8-diazaspiro[4.5]decane-3-carboxylic acid]
300 to 3000 nM |  | Nc1nc(O[C@H](c2ccc(-c3ccc(Cl)cc3)cc2)C(F)(F)F)cc(N2CCC3(CC2)CN[C@H](C(=O)O)C3)n1 [Example 55cy, (S)-8-(2-amino-6-((R)-1-(4′-chloro-[1,1′-biphenyl]-4-yl)-2,2,2-trifluoroethoxy)pyrimidin-4-yl)-2,8-diazaspiro[4.5]decane-3-carboxylic acid]
50 to 300 nM |  | CCCOc1ccc(-c2ccc([C@@H](Oc3cc(N4CCC5(CC4)CN[C@H](C(=O)O)C5)nc(N)n3)C(F)(F)F)cc2)cc1 [Example 55dd, (S)-8-(2-amino-6-((R)-2,2,2-trifluoro-1-(4′-propoxy-[1,1′-biphenyl]-4-yl)ethoxy)pyrimidin-4-yl)-2,8-diazaspiro[4.5]decane-3-carboxylic acid]
50 to 300 nM |  | CCN(CC)C(=O)c1ccc(-c2ccc([C@@H](Oc3cc(N4CCC5(CC4)CN[C@H](C(=O)O)C5)nc(N)n3)C(F)(F)F)cc2)cc1 [Example 55de, (S)-8-(2-amino-6-((R)-1-(4′-(diethylcarbamoyl)-[1,1′-biphenyl]-4-yl)-2,2,2-trifluoroethoxy)pyrimidin-4-yl)-2,8-diazaspiro[4.5]decane-3-carboxylic acid]
50 to 300 nM |  | NC(=O)c1ccc(-c2ccc([C@@H](Oc3cc(N4CCC5(CC4)CN[C@H](C(=O)O)C5)nc(N)n3)C(F)(F)F)cc2)cc1 [Example 55df, (S)-8-(2-amino-6-((R)-1-(4′-carbamoyl-[1,1′-biphenyl]-4-yl)-2,2,2-trifluoroethoxy)pyrimidin-4-yl)-2,8-diazaspiro[4.5]decane-3-carboxylic acid]
50 to 300 nM |  | CNC(=O)c1ccc(-c2ccc([C@@H](Oc3cc(N4CCC5(CC4)CN[C@H](C(=O)O)C5)nc(N)n3)C(F)(F)F)cc2)cc1 [Example 55dg, (S)-8-(2-amino-6-((R)-2,2,2-trifluoro-1-(4′-(methylcarbamoyl)-[1,1′-biphenyl]-4-yl)ethoxy)pyrimidin-4-yl)-2,8-diazaspiro[4.5]decane-3-carboxylic acid]
